Earlier results, collected in patent publication US20250188060A1, “ALPHA1A-ADRENERGIC RECEPTOR AGONISTS AND METHODS OF USE” (CuraSen Therapeutics, Inc., priority 2022, published 2025).
Structures can show the parent of a compound that is named as a salt. Where two headings read alike, the source gives them in different places.

Tests used:
[1] = target: T1, α1A-adrenergic receptor (Homo sapiens, UniProt P35348); settings: as compared to noradrenaline; InsPs accumulation assay; Blue et al., Table 1; cited from earlier work
T1 sequence (P35348 1-466): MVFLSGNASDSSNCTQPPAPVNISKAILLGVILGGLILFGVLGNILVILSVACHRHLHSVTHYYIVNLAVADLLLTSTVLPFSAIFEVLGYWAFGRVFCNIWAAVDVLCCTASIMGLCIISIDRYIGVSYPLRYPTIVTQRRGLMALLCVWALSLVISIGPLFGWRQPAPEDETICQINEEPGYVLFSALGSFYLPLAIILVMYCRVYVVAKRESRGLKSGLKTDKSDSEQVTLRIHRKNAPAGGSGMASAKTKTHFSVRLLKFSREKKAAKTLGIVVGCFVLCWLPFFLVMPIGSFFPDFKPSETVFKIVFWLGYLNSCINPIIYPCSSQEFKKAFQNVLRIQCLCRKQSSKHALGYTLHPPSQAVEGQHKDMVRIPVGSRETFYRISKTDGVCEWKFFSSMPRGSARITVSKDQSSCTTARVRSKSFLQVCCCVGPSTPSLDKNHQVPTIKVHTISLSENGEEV

[2] = target: T1, α1A-adrenergic receptor; settings: as compared to noradrenaline; FLIPR assay; Blue et al., Table 1; cited from earlier work

Structure (SMILES) | intrinsic activity [1] | intrinsic activity [2]
Cc1c(OCC2=NCCN2)ccc(Cl)c1NS(C)(=O)=O [RO 115-1240 (dabuzalgron) HCl salt, dabuzalgron] | 0.27 | 0.51
Cc1c(OCC2=NCCN2)ccc(Cl)c1NS(C)(=O)=O [RO 115-1240 (dabuzalgron) free base, dabuzalgron] | 0.31 | 
